Publication PMC3673541 (2011)

Experiments:
[1] = system: Oxytricha Nova quadruplex (DNA, G4) GGGGTTTTGGGG; assay: ITC; details: Na+ 100 mM; 10 mM cacodylate, 0.5 mM EDTA, pH 6.8
[2] = system: human telomeric DNA (22mer) (DNA, G4) AGGGTTAGGGTTAGGGTTAGGG; assay: ITC; details: Na+ 100 mM; 10 mM cacodylate, 0.5 mM EDTA, pH 6.8; one-site model

Ka [1]: (1.8±0.3)×10^5 M^−1
Ka [2]: (2.5±0.2)×10^4 M^−1
Structure (SMILES): NC[C@@H]1O[C@H](O[C@H]2[C@@H](O)[C@H](O[C@@H]3[C@@H](O)[C@H](N)C[C@H](N)[C@H]3O[C@H]3O[C@H](CN)[C@@H](O)[C@H](O)[C@H]3N)O[C@@H]2CO)[C@H](N)[C@@H](O)[C@@H]1O
